Experiments:
HCC44 = assay: Cytotoxicity against human HCC44 cells measured after 8 days; format: functional, cell-based; details: HCC44, 192 h
HCC1937 = assay: Cytotoxicity against human HCC1937 cells measured after 8 days; format: functional, cell-based; details: HCC1937, 192 h
[1] = molecular target: T1, Bromodomain-containing protein 3 (Homo sapiens, UniProt Q15059); assay: Binding affinity to BRD3 bromodomain 1/2 (unknown origin) by BROMOscan assay
[2] = molecular target: T1, Bromodomain-containing protein 3; assay: Binding affinity to human partial length BRD3 bromodomain 2 (G306 to P416 residues) expressed in bacterial expression system by BROMOscan assay
SR = assay: Cytotoxicity against human SR cells measured after 8 days; format: functional, cell-based; details: 192 h
A-375 = assay: Cytotoxicity against human A-375 cells measured after 8 days; format: functional, cell-based; details: A-375, 192 h
SNU-C1 = assay: Cytotoxicity against human SNU-C1 cells measured after 8 days; format: functional, cell-based; details: SNU-C1, 192 h
[3] = molecular target: L-type calcium channel, verapamil binding site (Rattus norvegicus, UniProt P22002+P27732+Q02485); assay: Displacement of [3H]D 888 from rat brain L-type calcium channel verapamil binding site at 10 uM after 120 mins by scintillation counting analysis relative to control; details: rat brain L-type calcium channel preparation, probe [3H]D 888, read-out: Activity
[4] = Cytotoxicity against human HMY-1 cells measured after 8 days; format: functional, cell-based; details: HMY-1, 192 h
[5] = molecular target: Tyrosine-protein kinase Lck (Homo sapiens) (UniProt P06239); assay: Inhibition of LCK (unknown origin) at 1 uM relative to control
Sequence of Tyrosine-protein kinase Lck (Homo sapiens) (P06239 2-509 limits assumed): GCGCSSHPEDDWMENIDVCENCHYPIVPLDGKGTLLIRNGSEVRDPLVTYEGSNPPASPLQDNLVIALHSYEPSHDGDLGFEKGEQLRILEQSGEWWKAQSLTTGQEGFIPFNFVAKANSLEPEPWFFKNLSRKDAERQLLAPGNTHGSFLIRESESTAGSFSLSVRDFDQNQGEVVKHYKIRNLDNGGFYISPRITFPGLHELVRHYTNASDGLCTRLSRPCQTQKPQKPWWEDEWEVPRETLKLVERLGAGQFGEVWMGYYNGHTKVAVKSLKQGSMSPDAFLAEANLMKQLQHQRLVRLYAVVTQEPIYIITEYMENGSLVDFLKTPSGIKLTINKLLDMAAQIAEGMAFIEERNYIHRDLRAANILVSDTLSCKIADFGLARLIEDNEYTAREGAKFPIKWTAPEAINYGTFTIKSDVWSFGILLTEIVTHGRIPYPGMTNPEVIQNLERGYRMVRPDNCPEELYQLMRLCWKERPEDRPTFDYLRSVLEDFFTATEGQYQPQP

[6] = Cytotoxicity against human OVCA429 cells measured after 8 days; format: functional, cell-based; details: OVCA429, 192 h
[7] = Cytotoxicity against human NCI-H2803 cells measured after 8 days; format: functional, cell-based; details: NCI-H2803, 192 h
[8] = molecular target: Misshapen-like kinase 1 (Homo sapiens) (UniProt Q8N4C8); assay: Inhibition of Mink1 (unknown origin) at 1 uM relative to control
Sequence of Misshapen-like kinase 1 (Homo sapiens) (Q8N4C8 whole entry, looked up): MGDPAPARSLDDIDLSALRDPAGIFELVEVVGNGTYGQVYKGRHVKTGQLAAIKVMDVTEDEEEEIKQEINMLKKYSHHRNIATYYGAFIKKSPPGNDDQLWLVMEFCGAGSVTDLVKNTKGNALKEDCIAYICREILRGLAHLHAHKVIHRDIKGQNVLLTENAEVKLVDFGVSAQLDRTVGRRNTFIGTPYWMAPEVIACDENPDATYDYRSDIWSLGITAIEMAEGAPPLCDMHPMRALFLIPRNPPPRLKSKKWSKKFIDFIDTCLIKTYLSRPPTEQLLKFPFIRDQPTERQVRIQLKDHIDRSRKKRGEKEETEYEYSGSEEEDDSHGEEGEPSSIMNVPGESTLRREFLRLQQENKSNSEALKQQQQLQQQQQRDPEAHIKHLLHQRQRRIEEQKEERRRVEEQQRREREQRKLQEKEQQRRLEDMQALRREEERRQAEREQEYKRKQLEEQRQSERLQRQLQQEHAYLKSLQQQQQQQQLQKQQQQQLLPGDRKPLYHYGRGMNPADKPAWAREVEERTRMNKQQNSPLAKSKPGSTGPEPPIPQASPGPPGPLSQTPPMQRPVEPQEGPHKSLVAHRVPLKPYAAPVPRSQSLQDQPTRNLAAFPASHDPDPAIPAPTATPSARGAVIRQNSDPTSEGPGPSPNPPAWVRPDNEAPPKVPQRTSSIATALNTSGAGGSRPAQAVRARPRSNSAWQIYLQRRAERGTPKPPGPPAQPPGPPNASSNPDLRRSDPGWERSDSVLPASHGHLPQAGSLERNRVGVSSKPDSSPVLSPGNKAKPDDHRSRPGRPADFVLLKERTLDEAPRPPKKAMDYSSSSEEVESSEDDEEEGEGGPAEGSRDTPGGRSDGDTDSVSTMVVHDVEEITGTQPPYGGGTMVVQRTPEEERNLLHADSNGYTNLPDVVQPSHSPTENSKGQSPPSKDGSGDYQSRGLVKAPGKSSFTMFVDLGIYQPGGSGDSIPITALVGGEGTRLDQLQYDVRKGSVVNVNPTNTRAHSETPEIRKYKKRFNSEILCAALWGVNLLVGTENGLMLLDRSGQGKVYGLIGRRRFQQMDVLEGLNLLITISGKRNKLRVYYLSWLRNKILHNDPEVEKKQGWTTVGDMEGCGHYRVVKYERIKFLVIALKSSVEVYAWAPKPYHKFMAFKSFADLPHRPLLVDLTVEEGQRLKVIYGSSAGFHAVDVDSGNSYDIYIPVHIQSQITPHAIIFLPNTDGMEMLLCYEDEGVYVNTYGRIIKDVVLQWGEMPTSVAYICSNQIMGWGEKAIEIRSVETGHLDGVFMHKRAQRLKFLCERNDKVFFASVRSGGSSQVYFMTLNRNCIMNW

[9] = molecular target: Sodium-dependent noradrenaline transporter (Homo sapiens) (UniProt P23975); assay: Displacement of [3H]nisoxetine from recombinant human norepinephrine transporter at 10 uM after 120 mins by scintillation counting analysis relative to control
Sequence of Sodium-dependent noradrenaline transporter (Homo sapiens) (P23975 whole entry): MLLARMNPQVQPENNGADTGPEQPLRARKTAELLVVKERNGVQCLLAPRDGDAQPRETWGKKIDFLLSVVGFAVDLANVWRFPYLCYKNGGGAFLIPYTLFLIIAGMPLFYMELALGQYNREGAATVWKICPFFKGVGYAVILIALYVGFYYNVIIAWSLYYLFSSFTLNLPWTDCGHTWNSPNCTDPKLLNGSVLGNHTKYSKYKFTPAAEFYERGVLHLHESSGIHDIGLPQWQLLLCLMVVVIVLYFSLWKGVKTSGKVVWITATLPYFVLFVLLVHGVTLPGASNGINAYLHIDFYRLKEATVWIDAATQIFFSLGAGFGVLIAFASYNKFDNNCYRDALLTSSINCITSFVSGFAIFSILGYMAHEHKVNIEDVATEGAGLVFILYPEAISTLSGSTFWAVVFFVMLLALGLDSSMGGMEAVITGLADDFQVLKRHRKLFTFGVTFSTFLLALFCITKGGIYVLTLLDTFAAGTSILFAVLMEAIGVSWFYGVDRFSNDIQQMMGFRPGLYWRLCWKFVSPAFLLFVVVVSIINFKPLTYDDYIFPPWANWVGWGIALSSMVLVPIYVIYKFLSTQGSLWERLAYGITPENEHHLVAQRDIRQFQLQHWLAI

BEN = assay: Cytotoxicity against human BEN cells measured after 8 days; format: functional, cell-based; details: 192 h
SKM-1 = assay: Cytotoxicity against human SKM-1 cells measured after 8 days; format: functional, cell-based; details: SKM-1, 192 h
NCI-H1355 = assay: Cytotoxicity against human NCI-H1355 cells measured after 8 days; format: functional, cell-based; details: NCI-H1355, 192 h
[10] = molecular target: T2, Transcription intermediary factor 1-alpha (Homo sapiens, UniProt O15164); assay: Binding affinity to human partial length TRIM24 (P790 to P977 residues) expressed in bacterial expression system by BROMOscan assay
T2 sequence (O15164 whole entry): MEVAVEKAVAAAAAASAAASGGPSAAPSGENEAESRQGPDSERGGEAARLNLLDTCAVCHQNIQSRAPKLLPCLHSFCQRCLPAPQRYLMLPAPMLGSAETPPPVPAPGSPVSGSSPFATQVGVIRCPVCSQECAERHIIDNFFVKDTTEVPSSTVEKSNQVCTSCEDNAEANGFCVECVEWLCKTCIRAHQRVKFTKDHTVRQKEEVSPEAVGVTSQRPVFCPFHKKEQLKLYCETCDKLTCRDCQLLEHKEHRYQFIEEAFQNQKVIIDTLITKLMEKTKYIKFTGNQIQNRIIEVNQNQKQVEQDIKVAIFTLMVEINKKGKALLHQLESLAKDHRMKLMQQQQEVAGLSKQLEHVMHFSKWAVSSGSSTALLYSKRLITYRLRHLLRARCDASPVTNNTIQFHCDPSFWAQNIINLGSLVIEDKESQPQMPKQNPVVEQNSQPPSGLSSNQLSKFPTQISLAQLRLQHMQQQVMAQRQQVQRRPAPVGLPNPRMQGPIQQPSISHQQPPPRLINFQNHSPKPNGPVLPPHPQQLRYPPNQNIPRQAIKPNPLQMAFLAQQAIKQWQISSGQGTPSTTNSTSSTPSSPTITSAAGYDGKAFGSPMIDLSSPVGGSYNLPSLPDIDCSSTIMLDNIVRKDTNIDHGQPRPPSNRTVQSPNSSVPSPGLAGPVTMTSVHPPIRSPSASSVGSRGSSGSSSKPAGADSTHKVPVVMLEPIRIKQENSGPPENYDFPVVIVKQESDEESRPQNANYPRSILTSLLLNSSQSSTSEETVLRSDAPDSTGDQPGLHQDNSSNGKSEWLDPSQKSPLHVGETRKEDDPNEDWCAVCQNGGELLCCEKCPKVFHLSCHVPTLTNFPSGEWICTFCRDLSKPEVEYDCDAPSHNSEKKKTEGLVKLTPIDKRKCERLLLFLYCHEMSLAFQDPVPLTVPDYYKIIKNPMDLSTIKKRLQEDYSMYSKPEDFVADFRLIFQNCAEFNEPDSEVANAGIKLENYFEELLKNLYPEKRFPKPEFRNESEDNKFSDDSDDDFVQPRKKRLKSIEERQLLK

[11] = Cytotoxicity against human ATRFLOX cells measured after 8 days; format: functional, cell-based; details: 192 h
[12] = molecular target: Adrenergic receptor alpha-1 (Rattus norvegicus) (UniProt P15823+P23944+P43140); assay: Displacement of [3H]-prazosin from rat alpha1 adrenoceptor at 10 uM after 60 mins by scintillation counting analysis relative to control; format: protein assay
[13] = molecular target: D(1A) dopamine receptor (Homo sapiens) (UniProt P21728); assay: Displacement of [3H]-SCH 23390 from human recombinant dopamine D1 receptor at 10 uM by scintillation counting 60 mins analysis relative to control
Sequence of D(1A) dopamine receptor (Homo sapiens) (P21728 whole entry): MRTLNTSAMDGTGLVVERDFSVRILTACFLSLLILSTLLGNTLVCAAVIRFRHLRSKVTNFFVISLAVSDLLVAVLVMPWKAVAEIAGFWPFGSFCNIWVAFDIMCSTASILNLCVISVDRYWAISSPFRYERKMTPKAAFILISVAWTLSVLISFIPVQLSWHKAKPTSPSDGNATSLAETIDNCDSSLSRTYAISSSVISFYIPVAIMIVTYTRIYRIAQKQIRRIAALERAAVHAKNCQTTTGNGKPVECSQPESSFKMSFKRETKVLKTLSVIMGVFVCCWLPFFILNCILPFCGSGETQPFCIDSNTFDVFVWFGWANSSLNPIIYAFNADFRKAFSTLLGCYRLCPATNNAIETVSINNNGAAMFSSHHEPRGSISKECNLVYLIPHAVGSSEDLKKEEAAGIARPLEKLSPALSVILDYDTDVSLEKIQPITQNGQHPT

NAMALVA = assay: Cytotoxicity against human NAMALVA cells measured after 8 days; format: functional, cell-based; details: 192 h
MHH-PREB-1 = assay: Cytotoxicity against human MHH-PREB-1 cells measured after 8 days; format: functional, cell-based; details: MHH-PREB-1, 192 h
DU-145 = assay: Cytotoxicity against human DU-145 cells measured after 8 days; format: functional, cell-based; details: DU-145, 192 h
[14] = molecular target: Bromodomain-containing protein 4 (Homo sapiens, UniProt O60885); assay: Binding affinity to human partial length BRD4 bromodomain 2 long isoform (K333 to E460 residues) expressed in bacterial expression system by BROMOscan assay
[15] = molecular target: 5-hydroxytryptamine receptor 2A (Homo sapiens) (UniProt P28223); assay: Displacement of [3H]ketanserin human recombinant 5-HT2A receptor at 10 uM after 60 mins by scintillation counting analysis relative to control
[16] = molecular target: cAMP-dependent protein kinase (PKA) (Homo sapiens) (UniProt P22694+P17612+P22612); assay: Inhibition of PKA (unknown origin) at 1 uM relative to control; format: protein assay
[17] = molecular target: Bromodomain-containing protein 8 (Homo sapiens, UniProt Q9H0E9); assay: Binding affinity to BRD8 bromodomain 2 (unknown origin) by BROMOscan assay
Sequence of Bromodomain-containing protein 8 (Q9H0E9 whole entry): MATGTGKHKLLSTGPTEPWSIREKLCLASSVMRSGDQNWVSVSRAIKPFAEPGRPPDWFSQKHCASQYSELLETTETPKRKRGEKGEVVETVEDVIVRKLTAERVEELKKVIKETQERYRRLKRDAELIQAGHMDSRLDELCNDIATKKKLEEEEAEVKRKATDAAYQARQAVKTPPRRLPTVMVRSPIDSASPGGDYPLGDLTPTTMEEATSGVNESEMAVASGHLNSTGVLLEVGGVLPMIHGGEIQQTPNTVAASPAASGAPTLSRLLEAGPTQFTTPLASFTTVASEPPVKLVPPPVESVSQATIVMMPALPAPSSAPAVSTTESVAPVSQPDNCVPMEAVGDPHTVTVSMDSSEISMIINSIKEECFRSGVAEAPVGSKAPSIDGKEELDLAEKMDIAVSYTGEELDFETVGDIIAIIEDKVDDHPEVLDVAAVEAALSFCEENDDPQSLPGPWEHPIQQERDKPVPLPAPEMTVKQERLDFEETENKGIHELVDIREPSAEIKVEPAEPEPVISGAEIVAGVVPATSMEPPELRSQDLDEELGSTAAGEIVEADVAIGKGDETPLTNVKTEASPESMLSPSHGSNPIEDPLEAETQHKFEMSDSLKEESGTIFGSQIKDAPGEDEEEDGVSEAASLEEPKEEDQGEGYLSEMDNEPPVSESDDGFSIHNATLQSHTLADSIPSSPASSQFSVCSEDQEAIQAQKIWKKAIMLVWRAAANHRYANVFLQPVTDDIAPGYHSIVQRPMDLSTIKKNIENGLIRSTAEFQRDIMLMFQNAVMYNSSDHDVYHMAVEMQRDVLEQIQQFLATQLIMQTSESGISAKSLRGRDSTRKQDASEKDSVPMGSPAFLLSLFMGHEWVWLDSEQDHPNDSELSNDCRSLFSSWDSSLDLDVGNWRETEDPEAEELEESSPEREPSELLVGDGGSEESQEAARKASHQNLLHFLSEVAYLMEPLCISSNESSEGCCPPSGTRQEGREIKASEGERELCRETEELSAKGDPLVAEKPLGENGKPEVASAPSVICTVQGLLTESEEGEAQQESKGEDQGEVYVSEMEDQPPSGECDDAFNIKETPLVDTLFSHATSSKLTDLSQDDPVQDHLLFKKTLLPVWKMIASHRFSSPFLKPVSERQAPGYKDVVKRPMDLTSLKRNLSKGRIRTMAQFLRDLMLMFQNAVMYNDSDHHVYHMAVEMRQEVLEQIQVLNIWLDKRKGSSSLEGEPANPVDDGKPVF

NCI-H1581 = assay: Cytotoxicity against human NCI-H1581 cells measured after 8 days; format: functional, cell-based; details: NCI-H1581, 192 h
HCC515 = assay: Cytotoxicity against human HCC515 cells measured after 8 days; format: functional, cell-based; details: HCC515, 192 h
[18] = Cytotoxicity against human OV7 cells measured after 8 days; format: functional, cell-based; details: OV7, 192 h

T1 sequence (Q15059 whole entry, the tested form may be a part): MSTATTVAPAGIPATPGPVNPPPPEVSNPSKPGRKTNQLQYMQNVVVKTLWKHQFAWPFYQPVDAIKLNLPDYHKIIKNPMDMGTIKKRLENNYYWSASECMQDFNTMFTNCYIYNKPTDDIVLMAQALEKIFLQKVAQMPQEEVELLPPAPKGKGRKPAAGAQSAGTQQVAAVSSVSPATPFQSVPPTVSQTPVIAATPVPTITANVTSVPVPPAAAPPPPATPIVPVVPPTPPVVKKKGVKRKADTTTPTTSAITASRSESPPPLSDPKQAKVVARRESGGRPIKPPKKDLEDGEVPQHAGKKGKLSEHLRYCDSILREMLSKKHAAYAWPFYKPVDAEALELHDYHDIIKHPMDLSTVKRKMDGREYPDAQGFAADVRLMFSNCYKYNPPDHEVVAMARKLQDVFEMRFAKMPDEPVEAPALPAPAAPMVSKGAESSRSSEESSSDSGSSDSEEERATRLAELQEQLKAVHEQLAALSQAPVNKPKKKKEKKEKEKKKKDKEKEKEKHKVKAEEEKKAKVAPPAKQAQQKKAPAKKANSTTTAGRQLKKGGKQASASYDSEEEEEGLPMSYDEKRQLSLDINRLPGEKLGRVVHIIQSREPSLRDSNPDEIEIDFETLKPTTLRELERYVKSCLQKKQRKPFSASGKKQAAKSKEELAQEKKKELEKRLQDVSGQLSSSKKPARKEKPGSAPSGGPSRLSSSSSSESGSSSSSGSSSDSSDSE

SMILES | IC50 (HCC44) [µM] | IC50 (HCC1937) [µM] | Kd [1] [µM] | Kd [2] [µM] | IC50 (SR) [µM] | IC50 (A-375) [µM] | IC50 (SNU-C1) [µM] | inhibition at 2 h, 10 µM [3] [%] | IC50 [4] [µM] | inhibition [5] [%] | IC50 [6] [µM] | IC50 [7] [µM] | inhibition [8] [%] | Activity [9] [%] | IC50 (BEN) [µM] | IC50 (SKM-1) [µM] | IC50 (NCI-H1355) [µM] | Kd [10] [µM] | Kd [14] [µM] | Kd [17] [µM] | further results
C/C=C/Cn1cc(-c2ccc(C(C)(C)O)cc2OC)c2cc[nH]c2c1=O | 20 | 20 | 5.5 | 4 | 20 | 20 | 20 | -3 | 20 | 19.5 | 20 | 20 | 18 | -6 | 20 | 20 | 20 | > 10 | 3.7 | > 10 | IC50 [11]: 20 µM; Activity [12]: 7%; Activity [13]: 0%; IC50 (NAMALVA): 20 µM; IC50 (MHH-PREB-1): 20 µM; IC50 (DU-145): 20 µM; Activity [15]: 0%; inhibition [16]: 3%; IC50 (NCI-H1581): 20 µM; IC50 (HCC515): 20 µM; IC50 [18]: 20 µM
C/C=C/Cn1cc(-c2cc(OC)c(C(C)(C)O)cc2OC)c2cc(C)[nH]c2c1=O | – | – | > 10 | > 10 | – | – | – | – | – | – | – | – | – | – | – | – | – | > 10 | > 10 | > 10 | –
C/C=C/Cn1cc(-c2ccc(C(=O)N3CCOCC3)cc2)c2cc[nH]c2c1=O | 20 | 20 | 4.4 | 4.4 | 20 | 20 | 20 | 7 | 20 | 6.5 | 20 | 20 | 1.5 | -3 | 20 | 13.9 | 20 | 26 | 6.6 | > 10 | IC50 [11]: 20 µM; Activity [12]: 7%; Activity [13]: 6%; IC50 (NAMALVA): 20 µM; IC50 (MHH-PREB-1): 20 µM; IC50 (DU-145): 20 µM; Activity [15]: 11%; inhibition [16]: -6.8%; IC50 (NCI-H1581): 20 µM; IC50 (HCC515): 20 µM; IC50 [18]: 20 µM
C/C=C/Cn1cc(-c2cc(OC)c(C(=O)N3CCOCC3)cc2OC)c2cc(C)[nH]c2c1=O | 2 | 2 | > 10 | > 10 | 2 | 2 | 2 | 3 | 2 | 18.5 | 1.77 | 2 | 8 | 0 | 2 | 2 | 2 | > 10 | > 10 | > 10 | IC50 [11]: 2 µM; Activity [12]: 3%; Activity [13]: 4%; IC50 (NAMALVA): 2 µM; IC50 (MHH-PREB-1): 2 µM; IC50 (DU-145): 2 µM; Activity [15]: 15%; inhibition [16]: 6%; IC50 (NCI-H1581): 2 µM; IC50 (HCC515): 2 µM; IC50 [18]: 2 µM

Source: ChEMBL document CHEMBL5260810, “Inhibition of bromodomain-containing protein 9 for the prevention of epigenetically-defined drug resistance” (Bioorg Med Chem Lett, 2017)
